Measured values taken from ChEMBL document CHEMBL5233258, “Recent developments of gallic acid derivatives and their hybrids in medicinal chemistry: A review” (Eur J Med Chem, 2020).

Columns and labels:
[1] = Antioxidant activity in ethanol; assay type: functional
[2] = system: Corynebacterium ammoniagenes; assay: Antibacterial activity against Brevibacterium ammoniagenes ATCC 6872 assessed as inhibition of bacterial growth incubated for 48 hrs by broth macrodilution method; assay type: functional
Bacillus subtilis [3] = assay: Bactericidal activity against Bacillus subtilis ATCC 9372 assessed as inhibition of bacterial growth incubated for 48 hrs by broth macrodilution method; assay type: functional
[4] = system: Corynebacterium ammoniagenes; assay: Bactericidal activity against Brevibacterium ammoniagenes ATCC 6872 assessed as inhibition of bacterial growth incubated for 48 hrs by broth macrodilution method; assay type: functional
[5] = target: T1, Seed linoleate 13S-lipoxygenase-1 (Glycine max, UniProt P08170); assay: Inhibition of soybean LOX-1
T1 sequence (P08170 whole entry): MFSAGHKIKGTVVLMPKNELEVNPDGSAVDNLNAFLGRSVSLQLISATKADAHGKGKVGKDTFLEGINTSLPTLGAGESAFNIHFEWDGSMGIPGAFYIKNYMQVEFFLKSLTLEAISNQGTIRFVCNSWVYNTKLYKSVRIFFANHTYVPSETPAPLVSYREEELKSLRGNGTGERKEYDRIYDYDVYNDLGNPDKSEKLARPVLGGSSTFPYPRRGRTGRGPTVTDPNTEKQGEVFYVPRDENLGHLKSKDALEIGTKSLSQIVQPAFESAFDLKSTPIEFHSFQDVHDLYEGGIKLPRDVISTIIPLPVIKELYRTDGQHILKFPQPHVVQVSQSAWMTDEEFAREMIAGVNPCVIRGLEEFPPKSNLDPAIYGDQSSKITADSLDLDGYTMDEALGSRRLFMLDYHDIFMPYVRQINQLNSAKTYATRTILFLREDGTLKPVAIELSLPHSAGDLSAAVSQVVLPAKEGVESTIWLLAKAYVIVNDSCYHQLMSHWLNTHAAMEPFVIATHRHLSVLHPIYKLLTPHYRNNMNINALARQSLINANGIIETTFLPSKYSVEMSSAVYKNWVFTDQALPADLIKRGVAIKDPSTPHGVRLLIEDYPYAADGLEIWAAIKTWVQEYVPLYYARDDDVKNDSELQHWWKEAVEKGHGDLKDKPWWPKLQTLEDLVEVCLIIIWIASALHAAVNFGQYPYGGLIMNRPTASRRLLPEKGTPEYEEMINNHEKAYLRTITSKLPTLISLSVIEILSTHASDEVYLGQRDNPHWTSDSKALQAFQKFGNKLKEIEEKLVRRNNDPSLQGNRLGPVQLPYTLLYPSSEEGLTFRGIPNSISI

Micrococcus luteus [6] = assay: Bactericidal activity against Micrococcus luteus ATCC 4698 assessed as inhibition of bacterial growth incubated for 48 hrs by broth macrodilution method; assay type: functional
Bacillus subtilis [7] = assay: Antibacterial activity against Bacillus subtilis ATCC 9372 assessed as inhibition of bacterial growth incubated for 48 hrs by broth macrodilution method; assay type: functional
Staphylococcus aureus [8] = assay: Antibacterial activity against Staphylococcus aureus ATCC 12598 assessed as inhibition of bacterial growth incubated for 48 hrs by broth macrodilution method; assay type: functional
Micrococcus luteus [9] = assay: Antibacterial activity against Micrococcus luteus ATCC 4698 assessed as inhibition of bacterial growth incubated for 48 hrs by broth macrodilution method; assay type: functional
Staphylococcus aureus [10] = assay: Bactericidal activity against Staphylococcus aureus ATCC 12598 assessed as inhibition of bacterial growth incubated for 48 hrs by broth macrodilution method; assay type: functional

| SMILES | IC50 [1] | MIC [2] | MBC (Bacillus subtilis [3]) | MBC [4] | IC50 [5] | MBC (Micrococcus luteus [6]) | MIC (Bacillus subtilis [7]) | MIC (Staphylococcus aureus [8]) | MIC (Micrococcus luteus [9]) | MBC (Staphylococcus aureus [10]) |
| --- | --- | --- | --- | --- | --- | --- | --- | --- | --- | --- |
| CCCCCCCCOC(=O)c1cc(O)c(O)c(O)c1 [OCTYL_GALLATE] | 19 ppm | – | – | – | – | – | – | – | – | – |
| CCCCCCCCCCCCOC(=O)c1cc(O)c(O)c(O)c1 [DODECYL GALLATE] | – | > 200 µg/mL | > 200 µg/mL | > 200 µg/mL | 1100 nM | > 200 µg/mL | > 200 µg/mL | > 200 µg/mL | > 200 µg/mL | > 200 µg/mL |
